Patent publication US11802127B2, “3,4-dihydro-2,7-naphthyridine-1,6(2H,7H)-diones as MEK inhibitors” (Pfizer Inc., priority 2021, dated 2023)
Where a name gives a salt, the structure may show the parent alone.

Key:
[1] = system: ERK1/2(Thr202/Tyr204) phosphorylation (MEK-dependent) in A375 cells; test: Cellular Phospho-p44/42 MAPK (Erk1/2) (Thr202/Tyr204) Assay; assay type: cell-based; settings: Homo sapiens, A-375, 1-hour incubation, pERK1/2 (Thr202/Tyr204) In-Cell Western normalized to GAPDH
Procedure, shortened: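 A375 cells exposed 1 h to 10-point 1:3 dilutions (top 20–1 μM, 0.5% DMSO), then fixed and stained for pERK1/2 (Thr202/Tyr204) by In-Cell Western. Signal normalized to GAPDH per well; DMSO and 1 μM reference inhibitor define 0 and 100% inhibition.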

BCRP (hBCRP) = molecular target: T1, BCRP (hBCRP) (Homo sapiens, UniProt Q9UNQ0); test: Efflux ratio in BCRP transfected MDCKII canine P-gp knockout cells; assay type: in vitro ADME; settings: Papp(B−A)/Papp(A−B), read-out: Efflux ratio MDCKII-hBCRP knock-in,canine pg-P KO
T1 construct: expressed in transfected cells; host or cells: MDCKII (canine kidney) cells, canine P-gp knockout, transfected with BCRP
T1 sequence (Q9UNQ0 1-655): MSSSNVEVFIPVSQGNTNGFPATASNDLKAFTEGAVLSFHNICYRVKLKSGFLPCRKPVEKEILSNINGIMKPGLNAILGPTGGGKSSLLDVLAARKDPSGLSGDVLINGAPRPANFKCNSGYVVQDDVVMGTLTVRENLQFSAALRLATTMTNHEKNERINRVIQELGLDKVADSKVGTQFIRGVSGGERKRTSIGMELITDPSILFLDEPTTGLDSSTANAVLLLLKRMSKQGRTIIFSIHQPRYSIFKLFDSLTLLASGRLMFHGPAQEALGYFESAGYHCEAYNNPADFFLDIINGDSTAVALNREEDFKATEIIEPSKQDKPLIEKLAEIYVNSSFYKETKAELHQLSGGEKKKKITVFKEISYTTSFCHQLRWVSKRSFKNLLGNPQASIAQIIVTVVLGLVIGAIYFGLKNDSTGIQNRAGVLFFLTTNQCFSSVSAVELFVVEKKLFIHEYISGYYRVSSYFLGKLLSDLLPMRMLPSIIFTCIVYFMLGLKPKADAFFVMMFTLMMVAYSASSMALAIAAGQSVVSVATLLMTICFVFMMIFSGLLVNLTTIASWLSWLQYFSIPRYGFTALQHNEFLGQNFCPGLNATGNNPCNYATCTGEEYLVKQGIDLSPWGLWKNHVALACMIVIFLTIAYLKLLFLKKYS
Procedure, shortened: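 Test article at 1 μM final (1% organic) in A→B and B→A directions across MDCKII P-gp knockout monolayers expressing BCRP, 2 h at 37° C., triplicate; lucifer yellow checked monolayer integrity. Concentrations by LC-MS/MS against labetalol internal standard; efflux ratio = Papp(B−A)/Papp(A−B).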

[2] = MDR1 LLC-PK1 and BCRP MDCKII Permeability Assay: permeability coefficient (Papp); assay type: in vitro ADME; settings: MDCK, test article 1 μM, 37° C.
Method: (§1) Both LLC-PK1 and MDR1 transfected LLC-PK1 cells were cultured and plated according to manufacturer's recommendations with the exception that the passage media contained only 2% fetal bovine serum to extend passage time out to seven days.
BCRP transfected MDCKII canine P-gp knockout cell line was cultured and plated according to manufacturer's recommendations.
(§2) Both positive and negative controls were used to assess functionality of P-gp or BCRP efflux in the assays. Stock solutions for assay controls and the test article were prepared in DMSO for final test concentrations of 10 and 1 μM, respectively. Final organic concentration in the assay was 1%. All dosing solutions contained 10 μM lucifer yellow to monitor LLC-PK1 or MDCKII cell monolayer integrity.
(§3) For the apical to basolateral determination (A to B), 75 μL of the test article in transport buffer were added to the apical side of the individual transwells and 250 μL of basolateral media, without compound or lucifer yellow, were added to each well. For the basolateral to apical determination (B to A), 250 μL of test article in transport buffer were added to each well and 75 μL transport buffer, without compound or lucifer yellow, were added to each transwell. All tests were performed in triplicate, and each compound was tested for both apical to basolateral and basolateral to apical transport. The plates were incubated for 2 hours on a Lab-Line Instruments Titer Orbital Shaker (VWR, West Chester, PA) at 50 rpm and 37° C. with 5% CO2. All culture plates were removed from the incubator and 50 μL of media were removed from the apical and basolateral portion of each well and added to 150 μL of 1 μM labetalol in 2:1 acetonitrile (acetonitrile): H2O, v/v.
(§4) The plates were read using a Molecular Devices (Sunnyvale, CA) Gemini Fluorometer to evaluate the lucifer yellow concentrations at excitation/emission wavelengths of 425/535 nm. These values were accepted when found to be below 2% for apical to basolateral and 5% basolateral to apical flux across the MDR1-transfected LLC-PK1 or BCRP-transfected MDCKII cell monolayers. The plates were sealed and the contents of each well analyzed by LC-MS/MS. The compound concentrations were determined from the ratio of the peak areas of the compound to the internal standard (labetalol) in comparison to the dosing solution.
(§5) The LC-MS/MS system was comprised of an HTS-PAL autosampler (Leap Technologies, Carrboro, NC), an HP1200 HPLC (Agilent, Palo Alto, CA), and a MDS Sciex 4000 Q Trap system (Applied Biosystems, Foster City, CA). […] The total run time, including re-equilibration, for a single injection was 1.2 minutes. Mass spectrometric detection of the analytes was accomplished using the ion spray positive mode. Analyte responses were measured by multiple reaction monitoring (MRM) of transitions unique to each compound (the protonated precursor ion and selected product ions for each test article and m/z 329 to m/z 162 for labetalol, the internal standard).

P-gp (MDR1) = molecular target: T2, P-gp (MDR1) (Homo sapiens, UniProt P08183); test: Efflux ratio in MDR1 transfected LLC-PK1 cells; assay type: in vitro ADME; settings: pig, Papp(B−A)/Papp(A−B)
T2 construct: expressed in transfected cells; host or cells: LLC-PK1 (porcine kidney) cells transfected with MDR1
T2 sequence (P08183 whole entry): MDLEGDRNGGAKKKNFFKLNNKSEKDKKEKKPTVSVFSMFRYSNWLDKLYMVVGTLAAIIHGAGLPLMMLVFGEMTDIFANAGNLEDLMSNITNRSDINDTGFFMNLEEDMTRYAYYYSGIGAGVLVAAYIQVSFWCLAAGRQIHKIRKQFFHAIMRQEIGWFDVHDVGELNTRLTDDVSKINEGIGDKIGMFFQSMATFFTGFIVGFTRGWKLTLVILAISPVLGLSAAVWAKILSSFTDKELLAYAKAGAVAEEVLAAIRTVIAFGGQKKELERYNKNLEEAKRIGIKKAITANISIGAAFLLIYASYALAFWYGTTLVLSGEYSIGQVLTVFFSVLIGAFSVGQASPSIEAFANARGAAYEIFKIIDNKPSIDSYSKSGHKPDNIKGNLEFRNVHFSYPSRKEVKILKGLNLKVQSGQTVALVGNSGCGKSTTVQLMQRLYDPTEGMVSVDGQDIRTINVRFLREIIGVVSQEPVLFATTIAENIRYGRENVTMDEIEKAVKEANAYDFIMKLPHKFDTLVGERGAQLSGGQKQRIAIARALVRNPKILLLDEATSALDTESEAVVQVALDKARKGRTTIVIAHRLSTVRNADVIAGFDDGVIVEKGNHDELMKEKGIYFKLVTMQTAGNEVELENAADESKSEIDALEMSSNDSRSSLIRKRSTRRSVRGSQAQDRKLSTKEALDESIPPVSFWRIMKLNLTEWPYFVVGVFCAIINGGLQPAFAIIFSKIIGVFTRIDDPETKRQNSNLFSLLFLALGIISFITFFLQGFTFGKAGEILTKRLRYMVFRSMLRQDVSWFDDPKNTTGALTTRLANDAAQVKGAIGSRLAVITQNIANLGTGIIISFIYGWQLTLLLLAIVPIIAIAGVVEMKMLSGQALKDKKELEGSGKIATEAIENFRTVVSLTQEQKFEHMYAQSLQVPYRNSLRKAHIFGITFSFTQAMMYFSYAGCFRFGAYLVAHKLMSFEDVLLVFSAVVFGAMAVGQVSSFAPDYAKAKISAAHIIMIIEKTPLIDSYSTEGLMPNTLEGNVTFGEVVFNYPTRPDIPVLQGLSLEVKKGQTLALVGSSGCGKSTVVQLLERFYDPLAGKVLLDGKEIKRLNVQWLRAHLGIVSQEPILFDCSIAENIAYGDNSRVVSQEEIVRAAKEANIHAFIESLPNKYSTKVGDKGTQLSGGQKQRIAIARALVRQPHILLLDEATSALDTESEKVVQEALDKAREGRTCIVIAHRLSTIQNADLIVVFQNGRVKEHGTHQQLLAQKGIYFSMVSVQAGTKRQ
Method: as §1, §2, §3, §4, §5
An efflux ratio is calculated from the mean apical to basolateral (A−B) Papp data and basolateral to apical (B−A) Papp data: Efflux ratio=Papp(B−A)/Papp(A−B)

Row | efflux ratio at 2 h, 1 μM (BCRP (hBCRP)) | Papp at 2 h, 1 μM [2] [×10⁻⁶ cm/s] | efflux ratio at 2 h, 1 μM (P-gp (MDR1)) | SMILES | IC50 [1] [nM]
1 | 1 | 39.3 | 1.4 | Cn1c(Nc2ccc(I)cc2F)c2c(cc1=O)CCNC2=O [Example 49, 8-((4-iodo-2-fluorophenyl)amino)-7-methyl-3,4-dihydro-2,7-naphthyridine-1,6(2H,7H)-dione trifluoroacetate] | 2
2 | 1.3 | 36.7 | 1.2 | CSc1ccc(Nc2c3c(cc(=O)n2C)CCNC3=O)c(F)c1 [Example 50, 8-((2-fluoro-4-(methylthio)phenyl)amino)-7-methyl-3,4-dihydro-2,7-naphthyridine-1,6(2H,7H)-dione trifluoroacetate] | 12
3 | 1.2 | 41.2 | 1.2 | CCc1ccc(Nc2c3c(cc(=O)n2C)CCNC3=O)c(F)c1 [Example 51, 8-((4-ethyl-2-fluorophenyl)amino)-7-methyl-3,4-dihydro-2,7-naphthyridine-1,6(2H,7H)-dione] | 26
4 | 1.2 | 36.8 | 1.3 | Cn1c(Nc2ccc(C3CC3)cc2F)c2c(cc1=O)CCNC2=O [Example 52, 8-((4-cyclopropyl-2-fluorophenyl)amino)-7-methyl-3,4-dihydro-2,7-naphthyridine-1,6(2H,7H)-dione] | 30
5 | 1.1 | 32.1 | 0.8 | CCc1ccc(Nc2c3c(c(C)c(=O)n2C)CCNC3=O)c(F)c1 [Example 56, 8-((4-ethyl-2-fluorophenyl)amino)-5,7-dimethyl-3,4-dihydro-2,7-naphthyridine-1,6(2H,7H)-dione] | 56

The remaining lines, values behind:

Row | SMILES | efflux ratio at 2 h, 1 μM (BCRP (hBCRP)) | Papp at 2 h, 1 μM [2] [×10⁻⁶ cm/s] | efflux ratio at 2 h, 1 μM (P-gp (MDR1)) | IC50 [1] [nM]
6 | Cn1c(Nc2ccc(I)cc2F)c2c(c(Cl)c1=O)CCN(OCCO)C2=O [Example 38, 5-chloro-8-((2-fluoro-4-iodophenyl)amino)-2-(2-hydroxyethoxy)-7-methyl-3,4-dihydro-2,7-naphthyridine-1,6(2H,7H)-dione] | 2.9 | 24.6 | 4.5 | 7
7 | Cn1c(Nc2ccc(Br)cc2F)c2c(c(F)c1=O)CCN(OCCO)C2=O [Example 39, 8-((4-bromo-2-fluorophenyl)amino)-5-fluoro-2-(2-hydroxyethoxy)-7-methyl-3,4-dihydro-2,7-naphthyridine-1,6(2H,7H)-dione] | 3.2 | 32.3 | 3.9 | 62
8 | Cc1c2c(c(Nc3ccc(I)cc3F)n(C)c1=O)C(=O)N(OCCO)CC2 [Example 40, 8-((2-fluoro-4-iodophenyl)amino)-2-(2-hydroxyethoxy)-5,7-dimethyl-3,4-dihydro-2,7-naphthyridine-1,6(2H,7H)-dione] | 1.9 | 28.4 | 3.6 | 4
9 | Cn1c(Nc2ccc(Br)cc2F)c2c(c(Br)c1=O)CCN(OCCO)C2=O [Example 42, 5-bromo-8-((4-bromo-2-fluorophenyl)amino)-2-(2-hydroxyethoxy)-7-methyl-3,4-dihydro-2,7-naphthyridine-1,6(2H,7H)-dione] | 3.3 | 29.4 | 2.8 | 143
10 | CCc1ccc(Nc2c3c(c(C)c(=O)n2C)CCN(OCCO)C3=O)c(F)c1 [Example 44, 8-((4-ethyl-2-fluorophenyl)amino)-2-(2-hydroxyethoxy)-5,7-dimethyl-3,4-dihydro-2,7-naphthyridine-1,6(2H,7H)-dione] | 2.7 | 33 | 1.1 | 13
11 | Cc1c2c(c(Nc3ccc(C4CC4)cc3F)n(C)c1=O)C(=O)N(OCCO)CC2 [Example 45, 8-((4-cyclopropyl-2-fluorophenyl)amino)-2-(2-hydroxyethoxy)-5,7-dimethyl-3,4-dihydro-2,7-naphthyridine-1,6(2H,7H)-dione] | 1.3 | 31.8 | 2.2 | 20
12 | Cc1c2c(c(Nc3ccc(I)cc3F)n(C)c1=O)C(=O)NCC2 [Example 48, 8-((2-fluoro-4-iodophenyl)amino)-5,7-dimethyl-3,4-dihydro-2,7-naphthyridine-1,6(2H,7H)-dione] | 1 | 16.2 | 1.4 | 6
13 | Cn1c(Nc2ccc(OC(F)F)cc2F)c2c(cc1=O)CCNC2=O [Example 53, 8-((4-(difluoromethoxy)-2-fluorophenyl)amino)-7-methyl-3,4-dihydro-2,7-naphthyridine-1,6(2H,7H)-dione] | 1.8 | 36.9 | 1.1 | 30
14 | CSc1ccc(Nc2c3c(c(C)c(=O)n2C)CCNC3=O)c(F)c1 [Example 55, 8-((2-fluoro-4-(methylthio)phenyl)amino)-5,7-dimethyl-3,4-dihydro-2,7-naphthyrdine-1,6(2H,7H)-dione] | 1.4 | 37.4 | 1.4 | 28
15 | Cc1c2c(c(Nc3ccc(C4CC4)cc3F)n(C)c1=O)C(=O)NCC2 [Example 57, 8-((4-cyclopropyl-2-fluorophenyl)amino)-5,7-dimethyl-3,4-dihydro-2,7-naphthyridine-1,6(2H,7H)-dione] | 1.2 | 31.8 | 0.9 | 94
